Biological target: α-glucosidase
Assay: enzyme inhibition assay with p-nitrophenyl-D-glycopyranoside substrate
Format: biochemical

Compound `COc1cccc(O)c1-c1cc(=O)c2c(O)c(OC)c(OC)c(OC)c2o1` [Skullcapflavone II] has an IC50 of 95 ± 11.5 nM.
`COc1cc(O)c2c(=O)cc(-c3ccccc3O)oc2c1OC` [Skullcapflavone I] showed an IC50 of 103 ± 8.43 nM.

From PMC9923641 (Molecular Biotechnology, 2023)
